Data: BindingDB's records for doi:10.1016/j.bmcl.2010.01.039 (Institute of Science and Technology, 2010)
pIC50: −log10 of the molar value.

Target: T1, Receptor-type tyrosine-protein kinase FLT3 (Homo sapiens, UniProt P36888)
T1 sequence (P36888 whole entry): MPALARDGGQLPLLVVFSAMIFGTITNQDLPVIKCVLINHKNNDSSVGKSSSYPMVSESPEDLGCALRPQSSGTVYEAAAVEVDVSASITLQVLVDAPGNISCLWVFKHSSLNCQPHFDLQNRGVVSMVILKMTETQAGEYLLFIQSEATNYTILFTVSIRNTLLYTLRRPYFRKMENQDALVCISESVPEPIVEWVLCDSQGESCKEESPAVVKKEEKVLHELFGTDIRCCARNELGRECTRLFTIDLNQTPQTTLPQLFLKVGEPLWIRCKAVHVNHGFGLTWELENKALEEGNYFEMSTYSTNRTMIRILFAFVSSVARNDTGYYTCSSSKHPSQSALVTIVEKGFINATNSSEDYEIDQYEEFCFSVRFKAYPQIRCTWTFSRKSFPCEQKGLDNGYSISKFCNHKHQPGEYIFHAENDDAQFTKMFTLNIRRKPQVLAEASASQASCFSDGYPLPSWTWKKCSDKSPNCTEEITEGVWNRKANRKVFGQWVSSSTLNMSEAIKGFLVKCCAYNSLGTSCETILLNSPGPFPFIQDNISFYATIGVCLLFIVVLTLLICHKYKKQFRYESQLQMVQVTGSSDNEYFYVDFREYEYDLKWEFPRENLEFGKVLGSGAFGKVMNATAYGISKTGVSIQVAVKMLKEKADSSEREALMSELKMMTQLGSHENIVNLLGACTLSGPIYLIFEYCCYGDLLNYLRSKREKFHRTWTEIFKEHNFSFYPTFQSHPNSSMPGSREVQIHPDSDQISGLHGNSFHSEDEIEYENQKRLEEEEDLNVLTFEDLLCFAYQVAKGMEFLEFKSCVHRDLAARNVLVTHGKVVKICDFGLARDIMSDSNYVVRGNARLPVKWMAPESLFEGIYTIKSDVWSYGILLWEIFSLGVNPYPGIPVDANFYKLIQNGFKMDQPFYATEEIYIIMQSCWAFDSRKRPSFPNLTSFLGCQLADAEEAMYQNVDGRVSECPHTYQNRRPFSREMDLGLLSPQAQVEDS
Experiment: Inhibition of FLT3 by HTRF assay

| pIC50 | Compound |
| --- | --- |
| < 5.00 | Cc1cc(Cl)cc2c1NC(=O)C2c1[nH]c2ccccc2c1N=O (centres undefined) [5'-Chloro-7'-methyl-1H,1'H-[2,3']biindolylidene-3,2'-dione 3-oxime] |
| < 5.00 | O=Nc1c(C2C(=O)Nc3ccc(OC(F)(F)F)cc32)[nH]c2ccccc12 (centres undefined) [5'-Trifluoromethoxy-1H,1'H-[2,3']biindolylidene-3,2'-dione 3-oxime] |
| < 5.00 | O=C1N=c2ccc([N+](=O)[O-])cc2=C1c1[nH]c2ccccc2c1O [(Z)-5'-Nitro-1H,1'H-[2,3']biindolylidene-3,2'-dione] |
| < 5.00 | O=Nc1c(C2C(=O)Nc3ccc([N+](=O)[O-])cc32)[nH]c2ccc(Br)cc12 (centres undefined) [(Z)-5-Bromo-5'-nitro-1H,1'H-[2,3']biindolylidene-3,2'-dione 3-oxime] |
